Where a SMILES comes first, the peptide text is derived from it. Bridges are numbered along the chain shown (N, C = ends). [ ]: non-standard residue; d: D form. pGlu = O=C1CC[C@@H](C(=O)O)N1
Experiments:
[1] = Retention time of the compound in 0.01 M NH4OAc buffer at pH 4.5 by HPLC analysis; assay type: physicochemical
[2] = system: Rattus norvegicus; experiment: Induction of hypothermia in cold-exposed Sprague-Dawley rat compound administered intracisternally measured 60 mins post dose relative to neurotensin; assay type: functional
[3] = species on record: Rattus norvegicus; experiment: Binding affinity to neurotensin receptor in rat mast cells at 1 ng to 10 ug after 15 mins relative to neurotensin; assay type: cell-based

SMILES | Retention_time [1] [min] | Ratio [2] | Ratio [3]
CC[C@H](C)[C@H](NC(=O)[C@H](Cc1ccc(O)cc1)NC(=O)[C@@H]1CCCN1C(=O)[C@@H](N)CCCNC(=N)N)C(=O)N[C@@H](CC(C)C)C(=O)O | 10.4 |  | 
CC[C@H](C)[C@@H]1NC(=O)[C@H](Cc2ccc(O)cc2)NC(=O)[C@@H]2CCCN2C(=O)[C@H](CCCNC(=N)N)NC(=O)[C@H](CCCNC(=N)N)NC(=O)[C@@H]2CCCN2C(=O)[C@H](CCCCN)NC(=O)[C@H](CC(N)=O)NC(=O)[C@H](CCC(=O)O)NC(=O)[C@H](Cc2ccc(O)cc2)NC(=O)[C@@H](NC(=O)[C@@H]2CCC(=O)N2)CSSC[C@@H](C(=O)O)NC1=O ([pGlu]CYENKPRRPYIC-OH; disulfide 2-13) | 5.3 | 100 | 3.4
CC[C@H](C)[C@H](NC(=O)[C@H](Cc1ccc(O)cc1)NC(=O)[C@@H]1CCCN1C(=O)[C@@H](N)CCCN=C(N)N)C(=O)N[C@@H](CC(C)C)C(=O)O |  | 20 | 76
CC[C@H](C)[C@H](NC(=O)[C@H](Cc1ccc(O)cc1)NC(=O)[C@@H]1CCCN1C(=O)[C@H](CCCNC(=N)N)NC(=O)[C@@H](N)CCCNC(=N)N)C(=O)N[C@@H](CC(C)C)C(=O)O [listing 1 of 2 here] | 8.2 |  | 
CC[C@H](C)[C@H](NC(=O)[C@H](Cc1ccc(O)cc1)NC(=O)[C@@H]1CCCN1C(=O)[C@H](CCCNC(=N)N)NC(=O)[C@@H](N)CCCNC(=N)N)C(=O)N[C@@H](CC(C)C)C(=O)O [listing 2 of 2 here] |  | 25 | 
CC[C@@H](C)[C@H](NC(=O)[C@H](Cc1ccc(O)cc1)NC(=O)[C@@H]1CCCN1C(=O)[C@H](CCCNC(=N)N)NC(=O)[C@@H](N)CCCNC(=N)N)C(=O)N[C@@H](CC(C)C)C(=O)O |  |  | 67

Further lines, with some results ahead:

Retention_time [1] [min] | SMILES | Ratio [2] | Ratio [3]
6.4 | CC[C@H](C)[C@H](NC(=O)[C@@H](CCCCN)NC(=O)[C@@H]1CCCN1C(=O)[C@H](CCCNC(=N)N)NC(=O)[C@H](CCCNC(=N)N)NC(=O)[C@@H]1CCCN1C(=O)[C@H](CCCCN)NC(=O)[C@H](CC(N)=O)NC(=O)[C@H](CCC(=O)O)NC(=O)[C@H](Cc1ccc(O)cc1)NC(=O)[C@H](CC(C)C)NC(=O)[C@@H]1CCC(=O)N1)C(=O)N[C@@H](CC(C)C)C(=O)O | <1 | 3.4
4.9 | CC[C@H](C)[C@H](NC(=O)[C@H](Cc1ccc(O)cc1)NC(=O)[C@@H]1CCCN1C(=O)[C@H](CCCNC(=N)N)NC(=O)[C@H](CCCNC(=N)N)NC(=O)[C@@H]1CCCN1C(=O)[C@H](CCCCN)NC(=O)[C@H](CC(N)=O)NC(=O)[C@H](CCC(=O)O)NC(=O)[C@H](Cc1ccccc1)NC(=O)[C@H](CC(C)C)NC(=O)[C@@H]1CCC(=O)N1)C(=O)N[C@@H](CC(C)C)C(=O)O | 100 | 102
5.2 | CC[C@H](C)[C@H](NC(=O)[C@@H](CC(C)C)NC(=O)[C@@H]1CCCN1C(=O)[C@H](CCCNC(=N)N)NC(=O)[C@H](CCCNC(=N)N)NC(=O)[C@@H]1CCCN1C(=O)[C@H](CCCCN)NC(=O)[C@H](CC(N)=O)NC(=O)[C@H](CCC(=O)O)NC(=O)[C@H](Cc1ccc(O)cc1)NC(=O)[C@H](CC(C)C)NC(=O)[C@@H]1CCC(=O)N1)C(=O)N[C@@H](CC(C)C)C(=O)O | 30 | 
5.3 | CC[C@H](C)[C@H](NC(=O)[C@@H](Cc1ccccc1)NC(=O)[C@@H]1CCCN1C(=O)[C@H](CCCN=C(N)N)NC(=O)[C@H](CCCN=C(N)N)NC(=O)[C@@H]1CCCN1C(=O)[C@H](CCCCN)NC(=O)[C@H](CC(N)=O)NC(=O)[C@H](CCC(=O)O)NC(=O)[C@H](Cc1ccc(O)cc1)NC(=O)[C@H](CC(C)C)NC(=O)[C@@H]1CCC(=O)N1)C(=O)N[C@@H](CC(C)C)C(=O)O | 1000 | 0.64
9.7 | CC[C@H](C)[C@H](NC(=O)[C@H](Cc1ccccc1)NC(=O)[C@@H]1CCCN1C(=O)[C@H](CCCN=C(N)N)NC(=O)[C@H](CCCN=C(N)N)NC(=O)[C@@H]1CCCN1C(=O)[C@H](CCCCN)NC(=O)[C@H](CC(N)=O)NC(=O)[C@H](CCC(=O)O)NC(=O)[C@H](Cc1ccc(O)cc1)NC(=O)[C@H](CC(C)C)NC(=O)[C@@H]1CCC(=O)N1)C(=O)N[C@@H](CC(C)C)C(=O)O | 100 | 100

Reference: ChEMBL document CHEMBL3272216 (J Med Chem, 1977)
